# In patent US20150141485A1, “PROGNOSIS AND TREATMENT OF LUNG CANCER USING miRNA-135b” (NATIONAL CHENG KUNG UNIVERSITY, priority 2013, published 2015):
# B1: miR-135b sponge: miR-135-specific sponge carrying seven repeats of the miR-135b binding site (SEQ ID NO:12) (nucleic acid)
# DNA: GTCGACTCACATAGGAACTTAAGCCATAATGCTCACATAGGAACTTAAGCCATAATGCTCACATAGGAACTTAAGCCATAATGCTCACATAGGAACTTAAGCCATAATGCTCACATAGGAACTTAAGCCATAATGCTCACATAGGAACTTAAGCCATAATGCTCACATAGGAACTTAAGCCATAATGTCGAC
# Experiments:
# [1] = system: miR-135b expression; experiment: Real-time RT-PCR of miR-135b after DNA demethylation; assay type: cell-based; details: cancer cells treated 4 days
# Procedure: Cells were treated with different doses of 5-aza-2′-CdR (5′-aza) for 4 days, and total RNA was harvested for real time RT-PCR. Data are expressed as the mean±s.d.
# (§1) Cells were seeded at concentration of 1×10^5 for treatment with 5-aza-2′-CdR (R&D Systems INC., MN, USA) for 96 hours. For TNF-α (PeproTech, Rocky Hill. N.J.) stimulation, 1×10^6 cells were seeded for 24 hours and treated with different amounts of TNF-α for 6 hours.
# (§2) Total RNA was isolated using TRIZOL reagent (Invitrogen, Carisbad, Calif.) according to the standard protocol. The mature miR-135b and endogenous control U6B were analyzed using TaqMan Micro RNA Assay (Applied Biosystems, Foster City, Calif.). Briefly, total RNA was reverse-transcribed via SuperScipt-III Reverse Transcriptase (Invitrogen, Carlsbad, Calif.). The cDNA was amplied with TaqMan 2× Universal Master Mix (Applied Biosystems), and miRNA-specific real-time PCR was performed using an ABI 7500 real-time PCR system.
# [2] = system: LEMD1 mRNA; experiment: LEMD1 mRNA expression after DNA demethylation; assay type: cell-based; details: lung cancer cell lines
# Procedure: as §1
# [3] = system: CL1-5-F4 cells; experiment: Real-time RT-PCR of miR-135b; assay type: cell-based, human; details: 6 hours
# Procedure: CL1-5-F4 cells were treated with different concentrations of TNF-α with or without BAY-117082 (5 or 10 μM) for 6 hours. Total RNA was harvested, and miR-135b expression was analyzed and analysis by real-time RT-PCR. Mean±s.d. is shown, *P<0.05; **P<0.005 by Student's t-test.
# as §1, §2
# [4] = system: NF-κB binding site within the miR-135b promoter; experiment: Chromatin immunoprecipitation (ChIP) with anti-p65; assay type: cell-based; details: 6 hours stimulation
# Procedure: The cells were treated with indicated amounts of 5-aza-2′-CdR (upper panel) for 4 days or TNF-α (lower panel) for 6 hours before being subjected to chromatin immunoprecipitation (ChIP) with anti-p65 antibody and specific primers.
# CL1-0 and H1299 cells were fixed with 1% formaldehyde and blocked by 125 mM glycine. The cells were resuspended in cell lysis buffer (5 mM HEPES, 85 mM KCl, 0.5% Triton X-100, 1 mM DTT, 1 mM PMSF, pH 8.0), followed by nucleic lysis buffer (50 mMTris-HCl, 10 mM EDTA, 1% SDS, 1 mM DTT, and protease inhibitor (Roche Applied Science, Mannheim, Germany)). The cell lysate was sonicated and clarified by centrifugation. The supernatant was diluted with protein G beads at 4° C. to pre-clear the solution Immunoprecipitation with anti-RelA (Abcam, Cambridge, UK) was performed at 4° C. overnight. DNA-protein complexes were than incubated with protein G agarose beads at 4° C. with constant rotation for 2 hours. Following immunoprecipitation, the beads were washed with a low-salt wash buffer, a high-salt wash buffer, a LiCl wash buffer, and, finally, a TE buffer. The immunoprecipitated complexes were eluted in a buffer containing 10 mM Tris pH 8.0, 300 mM NaCl. 5 mM EDTA, and 0.5% SDS at room temperature. The samples were then treated with proteinase K for 1 hour, followed by RNAse A. Next, the DNA was purified by phenol/chloroform extraction. […]
# [5] = system: H1299 cells; experiment: Real-time RT-PCR of miR-135b; assay type: cell-based; details: single treatment
# Procedure: Cells were treated with or without 5-aza-2′-CdR for 4 days and re-seeded for TNF-α stimulation for 6 hours. Total RNA was harvested, and miR-135b expression was analyzed. Mean±s.d. is shown, *P<0.05; **P<0.005 by Student's t-test.
# as §1, §2
# [6] = system: CL1-5-F4 cells; experiment: Transwell invasion assay; assay type: cell-based, human; details: CL1-5-F4 cells stably expressing sponge vs control sponge
# Procedure: CL1-5-F4 and Hop-62 cells were transfected with scramble (NC) of miR-135b-specific antagomir (Antago-135b) for 48 hours and the subjected to migration assays (FIG. 2d) and invasion assays (FIG. 2e) as described above. *P<0.05;**P<0.005 by Student's t-test.
# CL1-5-F4 cells transfected with plasmids expressing either control or miR-135b sponges were analyzed using in vitro invasion assay. The average number of invading cells obtained in the transwell invasion assay is presented (n=3).
# Transwell chambers ([…], BD Falcon, Franklin Lakes, N.J.) were coated with the appropriate amount of Matrigel (BD Biosciences, San Jose, Calif.). Next, 2.5×10^4 cells were suspended in NuSerum-containing media (Gibco BRL, Grand Island N.Y., USA), seeded in the chamber and cultured, Cells that invaded the chamber from top to bottom were fixed with methanol and stained with a solution of propidium iodine (Sigma-Aldrich, St. Louis, Mo.). The propidiumiodine-positive signal was quantified using Analytical Imaging Station software package. Each sample was assayed in triplicate.
# [7] = system: CL1-5-F4 cells; experiment: Lung metastasis after intravenous injection of sponge-expressing cells; assay type: in vivo; details: SCID mice, i.v. sponge-producing CL1-5-F4 cells, 6 weeks, P=0.0126
# From the text: CL-5-F4 cells stably expressing control sponge or miR-135b sponge were intravenously injected into SCID mice (n=8). Representative pictures of murine whole lung (left) and H&E staining of lung sections (right) are presented.
# Lung tumor nests in each group were examined and counted using a microscope (n=8); Mean±s.e.m. is shown,*P<0.05 by Student's t-test.
# Animals were housed in a specific-pathgen-free environment in the animal facility of the Institute of Biomedical Sciences, Academia Sinica. All experimental procedures were in compliance with the Academia Sinica IACUC and Council of Agriculture Guidebook for the Care and Use of Laboratory Animals. For intravenous injections of the tumor cells, 1×10^6 cells were suspended in 0.1 mL of phosphate-buffered saline (PBS) and injected into lateral tail vein of SCID mice (10 mice per group). […] For the subcutaneous tumor assay, 1×10^6 CL1-0 cells or 2×10^5 H441 cells were subcutaneously injected in 0.1 mL of PBS into male nude mice (n=8 per group) and allowed to grow for 35 days to reach a volume of 50-200 mm^3 Control antagomir (Scramble) or anti-miR-135b antagomir (antago-135) was intravenously injected at a concentration of 10 μM in 0.1 mL of PBS 4 days after the cells were implanted. An example of a miR-135b antagomir is 5′mU(*)mC(*)mAmCmAmUmAmG-mGmAmAmUmGmAmAmAmAmGmCmC(*)mA(*)mU(*)mA(*)(3′-Ch1)3′ (SEQ ID NO:8). […]
molecule,measurement,setting,value
Nc1ncn([C@H]2C[C@H](O)[C@@H](CO)O2)c(=O)n1 [5-aza-2′CdR],miR-135b expression levels,[1],restored
same,LEMD1 mRNA expression,[2],restored LEND1 mRNA expression in a dose-dependent manner
TNF-α,miR-135b expression,[3],induced miR-135b expression was also observed
same,association of NF-κB with the miR-135b promoter,[4],confirmed
same,miR-135b expression,[5],induced miR-135b expression was also observed
Cc1ccc(S(=O)(=O)/C=C/C#N)cc1 [BAY-117082],TNF-α-stimulated miR-135b expression,[3]; 5 or 10 μM,negated
B1,invasiveness in transwell invasion assay,[6],diminished the invasive
same,number of tumor nodules developed in the mouse lungs,[7],significantly reduced
